Reference: patent US4743677A, “Calcitonin gene related peptide derivatives” (Toyo Jozo Co., Ltd., priority 1985, dated 1988)

Columns and labels:
[1] = Serum phosphorus level lowering effect in rats (method of Goldenberg et al.); format: in vivo; conditions: 80 μg/kg through tail vein, Wistar rats; for drop of serum phosphorus concentration compared with control group: blood at 30 and 60 minutes, control = dissolving solution only; for serum phosphorus concentration compared with h-CGRP administered group: versus h-CGRP 80 μg/kg
Description: (§1) h-CGRP, desalanyl-deamino-h-CGRP and desalanyl-[Asu^2,7 ] -h-CGRP, each 80 μg, were dissolved in 1 ml of a citrate buffer (pH 6.5) containing 0.1% of bovine serum albumin (hereinafter called "dissolving solution") and then administered to a group of 5-6 Wistar rats (80-90 g) at 80 μg/kg through their tail veins. Upon elapsed time of 30 minutes and 60 minutes, blood samples were collected from their abdominal descending aortas. The serum calcium concentrations were measured by atomic absorption spectrophotometry while the serum phosphorus concentrations were determined the method proposed by Goldenberg et al. [Clin Chem., 12, 871-882 (1966)] .

[2] = Serum calcium level lowering effect in rats (atomic absorption spectrophotometry); format: in vivo; conditions: 80 μg/kg through tail vein, Wistar rats; for drop of serum calcium concentration compared with control group: blood at 30 and 60 minutes, control = dissolving solution only; for serum calcium concentration compared with h-CGRP administered group: versus h-CGRP 80 μg/kg
Description: as §1

[3] = Isoelectric point (pI) of the purified peptide; format: physicochemical; conditions: purified product
[4] = Stability in an aqueous solution; format: physicochemical

Structure (SMILES) | drop of serum phosphorus concentration compared with control group [1] | serum phosphorus concentration compared with h-CGRP administered group [1] | drop of serum calcium concentration compared with control group [2] | serum calcium concentration compared with h-CGRP administered group [2] | pI [3] | stability in an aqueous solution [4] | activity exhibiting time (serum phosphorus lowering) compared with h-CGRP ([1]; 30 and 60 minutes) | activity exhibiting time (serum calcium lowering) compared with h-CGRP ([2]; 30 and 60 minutes)
CC(C)C[C@H](NC(=O)CNC(=O)[C@H](C)NC(=O)[C@H](CC(C)C)NC(=O)[C@H](CCCNC(=N)N)NC(=O)[C@H](Cc1c[nH]cn1)NC(=O)[C@@H](NC(=O)[C@@H](NC(=O)[C@@H]1CCCCCC(=O)N[C@@H](CC(=O)O)C(=O)N[C@@H]([C@@H](C)O)C(=O)N[C@@H](C)C(=O)N[C@@H]([C@@H](C)O)C(=O)N1)C(C)C)[C@@H](C)O)C(=O)N[C@@H](CC(C)C)C(=O)N[C@@H](CO)C(=O)N[C@@H](CCCNC(=N)N)C(=O)N[C@@H](CO)C(=O)NCC(=O)NCC(=O)N[C@H](C(=O)N[C@H](C(=O)N[C@@H](CCCCN)C(=O)N[C@@H](CC(N)=O)C(=O)N[C@@H](CC(N)=O)C(=O)N[C@@H](Cc1ccccc1)C(=O)N[C@H](C(=O)N1CCC[C@H]1C(=O)N[C@H](C(=O)N[C@@H](CC(N)=O)C(=O)N[C@H](C(=O)NCC(=O)N[C@@H](CO)C(=O)N[C@@H](CCCCN)C(=O)N[C@@H](C)C(=O)N[C@@H](Cc1ccccc1)C(N)=O)C(C)C)[C@@H](C)O)C(C)C)C(C)C)C(C)C [desalanyl-[Asu^2,7]-h-CGRP] | about 20% | dropped with significance | about 20% | dropped with significance | ≥ 10.25 | extremely good stability | – | –
CC(C)C[C@H](NC(=O)CNC(=O)[C@H](C)NC(=O)[C@H](CC(C)C)NC(=O)[C@H](CCCNC(=N)N)NC(=O)[C@H](Cc1c[nH]cn1)NC(=O)[C@@H](NC(=O)[C@@H](NC(=O)[C@@H]1CSSCCC(=O)N[C@@H](CC(=O)O)C(=O)N[C@@H]([C@@H](C)O)C(=O)N[C@@H](C)C(=O)N[C@@H]([C@@H](C)O)C(=O)N1)C(C)C)[C@@H](C)O)C(=O)N[C@@H](CC(C)C)C(=O)N[C@@H](CO)C(=O)N[C@@H](CCCNC(=N)N)C(=O)N[C@@H](CO)C(=O)NCC(=O)NCC(=O)N[C@H](C(=O)N[C@H](C(=O)N[C@@H](CCCCN)C(=O)N[C@@H](CC(N)=O)C(=O)N[C@@H](CC(N)=O)C(=O)N[C@@H](Cc1ccccc1)C(=O)N[C@H](C(=O)N1CCC[C@H]1C(=O)N[C@H](C(=O)N[C@@H](CC(N)=O)C(=O)N[C@H](C(=O)NCC(=O)N[C@@H](CO)C(=O)N[C@@H](CCCCN)C(=O)N[C@@H](C)C(=O)N[C@@H](Cc1ccccc1)C(N)=O)C(C)C)[C@@H](C)O)C(C)C)C(C)C)C(C)C [desalanyl-deamino-h-CGRP] | about 20% | dropped with significance | about 20% | dropped with significance | ≥ 10.25 | – | prolonged | prolonged
